Experiments:
[1] = molecular target: T1, CDK7/Cyclin H/MNAT1 (Homo sapiens, UniProt P50613); experiment: Enzymatic assay for CDK7 (FRET based LANCE Ultra kinase assay); assay type: biochemical; conditions: for IC50: read-out: CDK7 enzymatic activity (IC50 range)
T1 construct: purchased Invitrogen PR6749B
How it was run: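 LANCE Ultra TR-FRET kinase assay using a ULight-labeled peptide substrate and a Eu-labeled anti-phospho antibody, with ATP at its Km. Purified CDK/cyclin complex was added to compound after brief centrifugation.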

[2] = system: MV4-11; experiment: Cellular MV4-11 viability assay (CellTiter-Glo, 72 hours); assay type: cell-based; conditions: Homo sapiens
How it was run: (§1)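 Cells were plated at line-specific densities and exposed to compound for 72 hours at 37 °C, 5% CO2, with DMSO-only wells as control (final DMSO below 0.1%). Viability was measured by CellTiter-Glo luminescence in duplicate.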

[3] = system: MM.1S; experiment: Cellular MM.1S viability assay (CellTiter-Glo, 72 hours); assay type: cell-based; conditions: Homo sapiens, MM1.S
Text: Human T-cell acute lymphoblastic leukemia cell line, MOLT-4 (ATCC, Cat #CRL-1582), Human multiple myeloma cell line, RPMI-8226 (Invitrogen, Cat #22400-089) and MM.1S (ATCC, Cat #CRL-2974), NSCLC (Non-small cell lung cancer) cell line H460 (ATCC, Cat #HTB-177), Human colon colorectal carcinoma cell line HCT116 (ATCC, Cat #CCL-247), Human acute monocytic leukemia cell line MV4-11 (ATCC, Cat #CRL-9591), OVCAR-3 (ATCC, Cat #HTB-161) and A2780 (ECACC, Cat #93112519) were obtained from ATCC. Cells were grown in RPMI-1640 media (Invitrogen, Cat #22400-089) supplemented with 10% FBS (Invitrogen, Cat #10099141) and 1% penicillin/streptomycin (Invitrogen, Cat #15070063) and cultured at 37° C., 5% CO2 in a humidified chamber. All cell lines were routinely tested for mycoplasma.
The effect of the CDK7 inhibitor to inhibit the growth of target cancer cells was evaluated through the 72 hours time period of viability assay. Briefly, the candidate cell line ware plated in 96 well plate at the following density of cells respectively. 1×10^4 cells/well for MOLT-4, RPMI-8226, MV4-11 and MM.1S, 5×10^3 for H460, HCT116 and OVCAR-3 and IX 10^3 for A2780. After 24 hours, the cells were treated with various concentrations of the compound (ranging from 0.0015 uM to 10 uM). DMSO solvent without compound served as a control and final DMSO concentration less than 0.1%. After 72 hours of incubation at 37° C., 5% CO2 incubator, cells were analyzed for the viability using the CellTiter-Glo Luminescent Cell Viability Assay (Promega, Cat #G7570). All viability assays were performed in duplicate and Luminescence was read using an Envision (Perkin Elmer, USA). Data was analyzed using XLfit software.

[4] = system: H460; experiment: Cellular H460 viability assay (CellTiter-Glo, 72 hours); assay type: cell-based; conditions: Homo sapiens, NCI-H460
How it was run: as §1

[5] = molecular target: T2, CDK5/p25 (Homo sapiens, UniProt Q00535); experiment: Enzymatic assay for CDK5 (FRET based LANCE Ultra kinase assay); assay type: biochemical; conditions: read-out: CDK5 enzymatic activity (IC50 range)
T2 construct: purchased Invitrogen PR8543B
How it was run: (§2)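 TR-FRET (LANCE Ultra) kinase assay at ATP Km, ULight-MBP peptide substrate (68 nM), 8-dose 4-fold compound series in DMSO. Enzymes: […]; 60 min at 23° C., stopped with EDTA plus Eu-anti-phospho-MBP antibody, read 665/615 nm after 60 min.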

[6] = molecular target: T3, CDK2/Cyclin A (Homo sapiens, UniProt P24941); experiment: Enzymatic assay for CDK2 (FRET based LANCE Ultra kinase assay); assay type: biochemical; conditions: read-out: CDK2 enzymatic activity (IC50 range)
T3 construct: purchased Invitrogen PV6290
How it was run: as §2

[7] = molecular target: T4, CDK1/Cyclin B (Homo sapiens, UniProt P06493); experiment: Enzymatic assay for CDK1 (FRET based LANCE Ultra kinase assay); assay type: biochemical; conditions: read-out: CDK1 enzymatic activity (IC50 range)
T4 construct: purchased Invitrogen PR4768C
How it was run: as §2

[8] = system: HCT116; experiment: Cellular HCT116 viability assay (CellTiter-Glo, 72 hours); assay type: cell-based; conditions: Homo sapiens, HCT-116
How it was run: as §1

T2 sequence (Q00535 whole entry): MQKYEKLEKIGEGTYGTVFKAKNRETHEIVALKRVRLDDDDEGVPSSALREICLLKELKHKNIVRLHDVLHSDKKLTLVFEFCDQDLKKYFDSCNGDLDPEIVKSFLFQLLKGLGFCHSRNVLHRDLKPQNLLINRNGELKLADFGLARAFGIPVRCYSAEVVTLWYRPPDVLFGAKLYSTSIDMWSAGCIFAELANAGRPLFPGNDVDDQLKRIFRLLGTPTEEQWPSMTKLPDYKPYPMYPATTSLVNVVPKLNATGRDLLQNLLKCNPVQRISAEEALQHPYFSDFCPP
T2 sequence (Q15078 99-307 partner limits assumed): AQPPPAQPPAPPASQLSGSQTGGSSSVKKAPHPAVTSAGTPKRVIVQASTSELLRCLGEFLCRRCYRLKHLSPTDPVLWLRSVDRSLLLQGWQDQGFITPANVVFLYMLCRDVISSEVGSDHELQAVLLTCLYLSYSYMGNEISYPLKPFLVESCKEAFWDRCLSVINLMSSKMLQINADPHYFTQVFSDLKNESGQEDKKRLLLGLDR
T4 sequence (P06493 whole entry): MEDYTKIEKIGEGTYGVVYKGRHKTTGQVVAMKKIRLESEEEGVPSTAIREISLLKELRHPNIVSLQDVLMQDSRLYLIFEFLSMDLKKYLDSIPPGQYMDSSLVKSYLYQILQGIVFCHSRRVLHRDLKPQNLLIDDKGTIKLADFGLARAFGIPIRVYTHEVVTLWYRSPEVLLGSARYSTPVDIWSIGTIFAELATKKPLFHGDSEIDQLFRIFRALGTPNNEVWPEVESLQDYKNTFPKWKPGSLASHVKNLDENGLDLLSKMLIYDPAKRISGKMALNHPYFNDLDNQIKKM
T4 sequence (P14635 whole entry partner): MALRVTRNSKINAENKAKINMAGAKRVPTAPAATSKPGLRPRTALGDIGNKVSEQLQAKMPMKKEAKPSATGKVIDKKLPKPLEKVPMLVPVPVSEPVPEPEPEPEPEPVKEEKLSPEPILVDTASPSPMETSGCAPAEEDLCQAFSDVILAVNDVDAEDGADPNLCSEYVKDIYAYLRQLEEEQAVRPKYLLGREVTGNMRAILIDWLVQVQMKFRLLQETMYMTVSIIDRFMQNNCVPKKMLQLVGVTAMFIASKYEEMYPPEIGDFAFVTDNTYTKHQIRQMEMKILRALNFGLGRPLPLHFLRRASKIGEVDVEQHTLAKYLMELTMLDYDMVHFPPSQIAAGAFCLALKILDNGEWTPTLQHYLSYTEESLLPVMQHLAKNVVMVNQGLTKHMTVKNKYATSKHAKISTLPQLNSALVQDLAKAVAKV
T1 sequence (P50613 whole entry): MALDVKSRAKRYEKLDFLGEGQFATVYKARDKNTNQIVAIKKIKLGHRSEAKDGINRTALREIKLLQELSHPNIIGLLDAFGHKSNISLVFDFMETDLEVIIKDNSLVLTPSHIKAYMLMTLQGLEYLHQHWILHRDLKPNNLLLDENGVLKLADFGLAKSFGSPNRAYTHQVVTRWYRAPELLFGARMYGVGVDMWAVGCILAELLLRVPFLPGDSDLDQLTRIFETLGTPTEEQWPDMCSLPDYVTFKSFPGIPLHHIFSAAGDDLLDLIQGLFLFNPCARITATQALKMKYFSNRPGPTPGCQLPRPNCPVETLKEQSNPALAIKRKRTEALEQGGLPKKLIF
T1 sequence (P51946 whole entry partner): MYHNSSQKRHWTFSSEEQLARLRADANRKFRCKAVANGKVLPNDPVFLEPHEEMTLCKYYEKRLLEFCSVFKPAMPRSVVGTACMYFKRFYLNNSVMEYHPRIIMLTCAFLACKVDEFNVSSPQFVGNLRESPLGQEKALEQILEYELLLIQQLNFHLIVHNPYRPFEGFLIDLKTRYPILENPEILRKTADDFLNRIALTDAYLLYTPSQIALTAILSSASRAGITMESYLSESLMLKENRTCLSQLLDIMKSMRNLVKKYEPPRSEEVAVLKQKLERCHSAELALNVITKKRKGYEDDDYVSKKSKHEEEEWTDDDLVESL
T1 sequence (P51948 whole entry partner): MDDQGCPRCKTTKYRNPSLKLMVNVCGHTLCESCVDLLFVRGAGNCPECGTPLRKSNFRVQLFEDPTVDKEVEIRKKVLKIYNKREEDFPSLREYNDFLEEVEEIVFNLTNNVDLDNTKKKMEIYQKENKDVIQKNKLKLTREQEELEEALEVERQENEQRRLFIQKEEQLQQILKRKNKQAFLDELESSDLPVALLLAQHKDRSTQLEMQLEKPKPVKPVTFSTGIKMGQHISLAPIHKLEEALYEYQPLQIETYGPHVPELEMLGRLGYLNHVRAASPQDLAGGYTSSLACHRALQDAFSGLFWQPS

Row | SMILES | CDK1/CDK7: Selectivity of CDK7 inhibition over CDK1 inhibition [1] | CDK2/CDK7: Selectivity of CDK7 inhibition over CDK2 inhibition [1] | CDK5/CDK7: Selectivity of CDK7 inhibition over CDK5 inhibition [1] | IC50 [1] | IC50 [2] | IC50 [3] | IC50 [4] | IC50 [5] | IC50 [6] | IC50 [7] | IC50 [8]
1 | COc1cccc(-c2cc3ccccc3[nH]2)c1CNc1nc(N2CCC(N)CC2)nc2c(C(C)C)cnn12 [Compound 186] | A (A=greater than 200 fold) | A (A=greater than 200 fold) | B (B=less than 200 fold, but greater than 20 fold) | < 100 nM | 1000 to 10000 nM | 1000 to 10000 nM | 1000 to 10000 nM | > 1000 nM | > 1000 nM | > 1000 nM | –
2 | CC(C)c1cnn2c(NCc3ccccc3-n3ccc(C(=O)NC4CCOCC4)n3)nc(N3CCC(N)CC3)nc12 [Compound 177] | A (A=greater than 200 fold) | B (B=less than 200 fold, but greater than 20 fold) | C (C=less than 20 fold) | < 100 nM | < 1000 nM | ≤ 1000 nM | < 1000 nM | < 100 nM | 100 to 1000 nM | 100 to 1000 nM | < 1000 nM
3 | CC(C)c1cnn2c(NCc3ccccc3-n3ccc(CO)n3)nc(N3CCC(N)CC3)nc12 [Compound 181] | B (B=less than 200 fold, but greater than 20 fold) | B (B=less than 200 fold, but greater than 20 fold) | B (B=less than 200 fold, but greater than 20 fold) | < 100 nM | < 1000 nM | ≤ 1000 nM | < 1000 nM | 100 to 1000 nM | 100 to 1000 nM | 100 to 1000 nM | < 1000 nM
4 | CC(=O)NC1CCc2nn(-c3ccccc3CNc3nc(N4CCC(N)CC4)nc4c(C(C)C)cnn34)cc2C1 (stereo not shown) [Compound 150] | A (A=greater than 200 fold) | A (A=greater than 200 fold) | B (B=less than 200 fold, but greater than 20 fold) | < 100 nM | < 1000 nM | ≤ 1000 nM | < 1000 nM | 100 to 1000 nM | > 1000 nM | > 1000 nM | < 1000 nM
5 | CC(C)c1cnn2c(NCc3ccccc3-n3cc4cc(C(=O)NC5COC5)ccc4n3)nc(N3CCC(N)CC3)nc12 [Compound 176] | B (B=less than 200 fold, but greater than 20 fold) | B (B=less than 200 fold, but greater than 20 fold) | B (B=less than 200 fold, but greater than 20 fold) | < 100 nM | < 1000 nM | ≤ 1000 nM | < 1000 nM | 100 to 1000 nM | 100 to 1000 nM | 100 to 1000 nM | –
6 | CC(C)(C)c1cnn2c(NCc3c(F)cccc3-n3cccn3)nc(N3CCC(N)CC3)nc12 [Compound 13] | A (A=greater than 200 fold) | B (B=less than 200 fold, but greater than 20 fold) | B (B=less than 200 fold, but greater than 20 fold) | < 100 nM | – | ≤ 1000 nM | < 1000 nM | 100 to 1000 nM | > 1000 nM | > 1000 nM | –
7 | Cc1[nH]c(-c2ccccc2CNc2nc(N3CCC(N)CC3)nc3c(C(C)C)cnn23)nc1C(=O)NC1CCOCC1 [Compound 178] | A (A=greater than 200 fold) | B (B=less than 200 fold, but greater than 20 fold) | C (C=less than 20 fold) | < 100 nM | < 1000 nM | ≤ 1000 nM | < 1000 nM | < 100 nM | 100 to 1000 nM | > 1000 nM | –
8 | CC(C)c1cnn2c(NCc3c(O)cccc3-c3cc4ccccc4[nH]3)nc(N3CCC(N)CC3)nc12 [Compound 185] | A (A=greater than 200 fold) | A (A=greater than 200 fold) | B (B=less than 200 fold, but greater than 20 fold) | < 100 nM | 1000 to 10000 nM | 1000 to 10000 nM | 1000 to 10000 nM | > 1000 nM | > 1000 nM | > 1000 nM | –
9 | CNC(=O)c1cccc(F)c1CNc1nc(N2CCC(N)CC2)nc2c(C(C)(C)C)cnn12 [Compound 20] | A (A=greater than 200 fold) | A (A=greater than 200 fold) | A (A=greater than 200 fold) | < 100 nM | < 1000 nM | 1000 to 10000 nM | < 1000 nM | > 1000 nM | > 1000 nM | > 1000 nM | –
10 | CC(C)c1cnn2c(N[C@@H](C)c3ccccc3-c3cc4ccccc4[nH]3)nc(N3CCC(N)CC3)nc12 [Compound 187] | A (A=greater than 200 fold) | A (A=greater than 200 fold) | A (A=greater than 200 fold) | < 100 nM | 1000 to 10000 nM | 1000 to 10000 nM | 1000 to 10000 nM | > 1000 nM | > 1000 nM | > 1000 nM | –
11 | CC(C)c1cnn2c(N[C@H](C)c3ccccc3-c3cc4ccccc4[nH]3)nc(N3CCC(N)CC3)nc12 [Compound 188] | B (B=less than 200 fold, but greater than 20 fold) | C (C=less than 20 fold) | C (C=less than 20 fold) | 100 to 1000 nM | 1000 to 10000 nM | 1000 to 10000 nM | 1000 to 10000 nM | > 1000 nM | > 1000 nM | > 1000 nM | –

From patent US11945822B2, “Pyrazolo-triazine and/or pyrazolo-pxrimidine derivatives as selective inhibitor of cyclin dependent kinase” (QURIENT CO., LTD., priority 2018, dated 2024)
